Measurements published in ChEMBL document CHEMBL4627389, “Constituents of Two Dioscorea Species That Potentiate Antibiotic Activity against MRSA” (2020).
Calls of active or inactive are those of the source. The rule behind the calls is not given here.

Columns and labels:
[1] = test system: Staphylococcus aureus; assay: Potentiation of […] antibacterial activity against Staphylococcus aureus XU212 assessed as tetracycline MIC at 64 mg/L by broth dilution assay (reference value: […]); format: functional
[2] = test system: Staphylococcus aureus; assay: Potentiation of norfloxacin-induced antibacterial activity against Staphylococcus aureus 1199B assessed as norfloxacin MIC at 64 mg/L by broth dilution assay (reference value: 32 mg/L); format: functional
[3] = test system: Staphylococcus aureus; assay: Antibacterial activity against Staphylococcus aureus 1199B assessed as inhibition of efflux pump by measuring increase in intracellular accumulation of ethidium bromide at 0.25 times of MIC after 30 mins by fluorescence assay; format: functional, organism-based
[4] = test system: Staphylococcus aureus; assay: Potentiation of norfloxacin-induced antibacterial activity against Staphylococcus aureus 1199B assessed as fold reduction in norfloxacin MIC at 64 mg/L by broth dilution assay relative to norfloxacin alone; format: functional
[5] = test system: Staphylococcus aureus; assay: Potentiation of […] antibacterial activity against Staphylococcus aureus XU212 assessed as fold reduction in tetracycline MIC at 64 mg/L by broth dilution assay relative to tetracycline alone; format: functional
[6] = test system: Staphylococcus aureus; assay: Potentiation of norfloxacin-induced antibacterial activity against Staphylococcus aureus 1199B assessed as fold reduction in norfloxacin MIC at 100 mg/L by broth dilution assay relative to norfloxacin alone; format: functional
[7] = test system: Staphylococcus aureus; assay: Potentiation of norfloxacin-induced antibacterial activity against Staphylococcus aureus 1199B assessed as norfloxacin MIC at 100 mg/L by broth dilution assay (reference value: 32 mg/L); format: functional
[8] = test system: Staphylococcus aureus; assay: Potentiation of […] antibacterial activity against Staphylococcus aureus XU212 assessed as fold reduction in tetracycline MIC at 100 mg/L by broth dilution assay relative to tetracycline alone; format: functional
[9] = test system: Staphylococcus aureus; assay: Potentiation of […] antibacterial activity against Staphylococcus aureus XU212 assessed as tetracycline MIC at 100 mg/L by broth dilution assay (reference value: […]); format: functional
[10] = test system: Staphylococcus aureus; assay: Potentiation of […] antibacterial activity against Staphylococcus aureus XU212 assessed as tetracycline MIC at 20 mg/L by broth dilution assay (reference value: […]); format: functional
[11] = test system: Staphylococcus aureus; assay: Antibacterial activity against Staphylococcus aureus 1199B assessed as inhibition of efflux pump by measuring increase in intracellular accumulation of ethidium bromide after 30 mins by fluorescence assay; format: functional, organism-based
[12] = test system: Staphylococcus aureus; assay: Potentiation of norfloxacin-induced antibacterial activity against Staphylococcus aureus 1199B assessed as norfloxacin MIC at 20 mg/L by broth dilution assay (reference value: 32 mg/L); format: functional
[13] = test system: Staphylococcus aureus; assay: Potentiation of norfloxacin-induced antibacterial activity against Staphylococcus aureus 1199B assessed as fold reduction in norfloxacin MIC at 20 mg/L by broth dilution assay relative to norfloxacin alone; format: functional
[14] = test system: Staphylococcus aureus; assay: Potentiation of […] antibacterial activity against Staphylococcus aureus XU212 assessed as fold reduction in tetracycline MIC at 20 mg/L by broth dilution assay relative to tetracycline alone; format: functional
[15] = test system: Staphylococcus aureus; assay: Potentiation of […] antibacterial activity against Staphylococcus aureus XU212 assessed as tetracycline MIC at 30 mg/L by broth dilution assay (reference value: […]); format: functional
[16] = test system: Staphylococcus aureus; assay: Potentiation of norfloxacin-induced antibacterial activity against Staphylococcus aureus 1199B assessed as fold reduction in norfloxacin MIC at 30 mg/L by broth dilution assay relative to norfloxacin alone; format: functional
[17] = test system: Staphylococcus aureus; assay: Potentiation of norfloxacin-induced antibacterial activity against Staphylococcus aureus 1199B assessed as norfloxacin MIC at 30 mg/L by broth dilution assay (reference value: 32 mg/L); format: functional

For `COc1cc(CCc2ccccc2O)cc(O)c1OC`, the MIC [1] was 64 µg/mL, the MIC [2] was 2 µg/mL and the inhibition [3] was “Active”. For the same compound, the “fold change (FC)” value [4] was 16 and the “fold change (FC)” value [5] was 2.
`COc1cc(CCC(=O)C[C@H](O)CC(=O)CCc2ccc(O)cc2)ccc1O` was tested, and the “fold change (FC)” value [6] was 2, the MIC [7] was 16 µg/mL and the “fold change (FC)” value [8] was 512. For the same compound, the MIC [9] was under 0.25 µg/mL.
`COC(=O)[C@H]1[C@H]2C[C@@H]3c4[nH]c5cc(OC)ccc5c4CCN3C[C@H]2C[C@@H](OC(=O)c2cc(OC)c(OC)c(OC)c2)[C@@H]1OC` [RESERPINE] was tested, and the inhibition [3] was “Active”, the MIC [10] was 64 µg/mL and the inhibition [11] was “Dose-dependent effect”. For the same compound, the MIC [12] was 16 µg/mL, the “fold change (FC)” value [13] was 2 and the “fold change (FC)” value [14] was 2.
`COc1cc(CCC(=O)CC(O)CC(=O)CCc2ccc(O)c(OC)c2)ccc1O` was tested, and the inhibition [3] was “Active”, the MIC [15] was 128 µg/mL and the “fold change (FC)” value [16] was 4. For the same compound, the MIC [17] was 8 µg/mL.
In the case of `COc1ccc(/C=C/C(=O)OCCCCCCCCCCCCCCCCCCCCCCCCCCCCCCCC(=O)O)cc1O`, the “fold change (FC)” value [6] is reported as 8, the MIC [7] is reported as 4 µg/mL and the “fold change (FC)” value [8] is reported as 16. For the same compound, the MIC [9] was 8 µg/mL.
